Measured values taken from patent US20240368174A1, “Antiviral Heterocyclic Compounds” (Enanta Pharmaceuticals, Inc., priority 2023, published 2024).

System: HMPV clinical isolate A2 strain TN 94-49
Assay: HMPV antiviral assay, Method 2 (LLC-MK2 cells with CP-100-356, ATP-Lite)
Assay type: cell-based
Details: human metapneumovirus
Method in brief: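 EC50 comes from a four-parameter fit of percent cell viability (ATP-Lite, normalized to virus-only and cell-only wells) after 7 days at 37 °C. Infection used HMPV A2 TN 94-49 at MOI 0.16 in LLC-MK2 cells, with 2 μM P-gp inhibitor CP-100-356 and 2 μg/mL TPCK-trypsin final; dose range 200 nM top, 2.5-fold, 10 points, duplicate.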

[1] = 168 h, hMPV A2 TN/94-49, LLC-MK2 cells with 4 μM CP-100-356, 7 days, ATP-Lite
[2] = hMPV A2 TN/94-49, LLC-MK2 cells with CP-100-356, Method 2

| EC50 [1] [nM] | EC50 [2] [nM] | Compound |
| --- | --- | --- |
| – | > 200 | COc1cc(C(=O)NC[C@@](O)(c2cnn(C)c2)c2cc3c(c(-c4cc(Cl)c(F)cc4F)n2)OC[C@]3(C)C(N)=O)cc2cn(C3CC3)nc12 [Example 153] |
| < 200 | – | COc1cc(C(=O)NC[C@](O)(c2cc3c(c(-c4cccc(F)c4Cl)n2)OC[C@]3(C)C(N)=O)C2CC2)cc2cc(C3CC3)nn12 [Example 632] |
| > 200 | – | COc1nccc(-c2nc([C@@](O)(CNC(=O)c3cc(OC4CC4)c4nn(C(F)F)cc4c3)C(C)C)cc3c2OC[C@]3(C)C(N)=O)c1Cl [Example 894] |
| – | < 200 | COc1nccc(-c2nc([C@@](O)(CNC(=O)c3cc(OC4CC4)c4nn(C5(F)CC5)cc4c3)C(F)(F)F)cc3c2OC[C@]3(C)C(N)=O)c1Cl [Example 588] |
| – | < 200 | COc1cc(C(=O)NC[C@](O)(c2cc3c(c(-c4cc(Cl)c(F)cc4F)n2)OC[C@]3(C)C(N)=O)c2ccnn2C)cc2cn(C3CC3)nc12 [Example 481] |
| – | < 200 | COc1cc(C(=O)NC[C@](O)(c2cc3c(c(-c4ccnc(C(F)(F)F)c4Cl)n2)OC[C@]3(C)C(N)=O)C(F)(F)F)cc2oc(C(F)F)nc12 [Example 597] |
| – | < 200 | COc1nccc(-c2nc([C@@](O)(CNC(=O)c3cc(OC4CC4)c4nn(C(F)F)cc4c3)C3CC3)cc3c2OC[C@]3(C)C(N)=O)c1Cl [Example 591] |
| > 200 | – | COc1cc(C(=O)NCC(O)(c2cc3c(c(-c4cc(C(F)(F)F)ncc4Cl)n2)OC[C@]3(C)C(N)=O)C2CC2)cc2cn(C3CC3)nc12 (stereo partly shown) [Example 870] |
| < 200 | – | COc1cc(C(=O)NC[C@](O)(c2cc3c(c(-c4cc(C5CC5)ncc4F)n2)OC[C@]3(C)C(N)=O)C2CC2)cc2cn(C3CC3)nc12 [Example 723] |
| < 200 | – | COc1nccc(-c2nc([C@@](O)(CNC(=O)c3cc(OC4CC4)c4nn(C5CC5)cc4c3)C(C)C)cc3c2OC[C@]3(C)C(N)=O)c1Cl [Example 893] |
| – | < 200 | COc1cc(C(=O)NC[C@](O)(c2cc3c(c(-c4cc(F)ncc4F)n2)OC[C@]3(C)C(N)=O)C2CC2)cc2cn(C3CC3)nc12 [Example 382] |
| – | < 200 | COc1cc(C(=O)NC[C@@](O)(c2cccc(F)c2)c2cc3c(c(-c4ccnc(C)c4Cl)n2)OC[C@]3(C)C(N)=O)cc2cn(C3(F)CC3)nc12 [Example 539] |
| > 200 | – | COc1cc(C(=O)NC[C@@](O)(c2ccc(F)cc2)c2cc3c(c(-c4ccnc(C)c4Cl)n2)OC[C@]3(C)C(N)=O)cc2cn(C(F)F)nc12 [Example 648] |
| < 200 | – | COc1nccc(-c2nc([C@@](O)(CNC(=O)c3cc(OC)c4nn(C5(F)CC5)cc4c3)C3(F)CC3)cc3c2OC[C@]3(C)C(N)=O)c1Cl [Example 654] |
| > 200 | – | COc1cc(C(=O)NC[C@](O)(c2cc3c(c(-c4ccnc(N5CCOCC5)c4Cl)n2)OC[C@]3(C)C(N)=O)C2CC2)cc2cn(C3CC3)nc12 [Example 805] |
| > 200 | – | COc1cc(C(=O)NC[C@](O)(c2cc3c(c(-c4ccnc(C5CCOCC5)c4Cl)n2)OC[C@]3(C)C(N)=O)C2CC2)cc2cn(C3CC3)nc12 [Example 903] |
| – | < 200 | COc1cc(C(=O)NC[C@@](O)(c2cccc(F)c2)c2cc3c(c(-c4ccnc(C(F)F)c4Cl)n2)OC[C@]3(C)C(N)=O)cc2cn(C3(F)CC3)nc12 [Example 566] |
| – | < 200 | COc1cc(C(=O)NC[C@](O)(c2cc3c(c(-c4ccnc(C(F)(F)F)c4Cl)n2)OC[C@]3(C)C(N)=O)C(F)(F)F)cn2cc(C3CC3)nc12 [Example 598] |
| – | < 200 | COc1cc(C(=O)NC[C@@](O)(c2cccc(F)n2)c2cc3c(c(-c4cc(Cl)c(F)cc4F)n2)OC[C@]3(C)C(N)=O)cc2cn(C3(F)CC3)nc12 [Example 204] |
| < 200 | – | COc1cc(C(=O)NC[C@@](O)(c2ccccc2)c2cc3c(c(-n4ncc5c(F)cccc54)n2)OC[C@]3(C)C(N)=O)cn2cc(C3CC3)nc12 [Example 634] |
| – | < 200 | COc1cc(C(=O)NC[C@](O)(c2cc3c(c(-c4ccc(F)c(C(F)(F)F)c4)n2)OC[C@]3(C)C(N)=O)C2CC2)cc2oc(C3CC3)nc12 [Example 330] |
| < 200 | – | COc1nccc(-c2nc([C@@](O)(CNC(=O)c3cc(OC4CC4)c4nn(C5CC5)cc4c3)C3(F)CC3)cc3c2OC[C@]3(C)C(N)=O)c1Cl [Example 657] |
| – | < 200 | COc1cc(C(=O)NC[C@](O)(c2cc3c(c(-c4ccnc(F)c4Cl)n2)OC[C@]3(C)C(N)=O)C2CC2)cc2cn(C3(F)CC3)nc12 [Example 209] |
| < 200 | – | COc1cc(C(=O)NC[C@](O)(c2cc3c(c(-c4ccnc5ccccc45)n2)OC[C@]3(C)C(N)=O)C2CC2)cc2cn(C3CC3)nc12 [Example 727] |
| > 200 | – | COc1cc(C(=O)NC[C@](O)(c2cc3c(c(-c4ccnc(C5CCOCC5)c4Cl)n2)OC[C@]3(C)C(N)=O)C2CC2)cc2cn(C(F)F)nc12 [Example 904] |
| – | < 200 | C[C@]1(C(N)=O)COc2c1cc([C@@](O)(CNC(=O)c1cc(OC3CC3)c3nn(C4CC4)cc3c1)C(F)(F)F)nc2-c1ccnc(C(F)(F)F)c1Cl [Example 593] |
| – | < 200 | COc1cc(C(=O)NC[C@@](O)(c2ccc(F)cc2)c2cc3c(c(-c4ccnc(C(F)(F)F)c4F)n2)OC[C@]3(C)C(N)=O)cc2cn(C3CC3)nc12 [Example 571] |
| < 200 | – | COc1cc(C(=O)NC[C@](O)(c2cc3c(c(-c4ccnc(C(F)F)c4F)n2)OC[C@]3(C)C(N)=O)C2CC2)cc2cn(C3CC3)nc12 [Example 803] |

Continued, compound first:

| Compound | EC50 [1] [nM] | EC50 [2] [nM] |
| --- | --- | --- |
| COc1cc(-c2nc([C@@](O)(CNC(=O)c3cc(OC)c4nn(C5CC5)cc4c3)C3CC3)cc3c2OC[C@]3(C)C(N)=O)ccn1 [Example 832] | > 200 | – |
| COc1cc(C(=O)NC[C@@](O)(c2cccc(F)c2)c2cc3c(c(-c4cc(C(F)(F)F)c(F)cc4F)n2)OC[C@]3(C)C(N)=O)cc2cn(C(F)F)nc12 [Example 301] | – | < 200 |
| COc1cc(C(=O)NC[C@@](O)(c2cccc(F)c2)c2cc3c(c(-c4ccc(C(C)(C)O)cc4)n2)OC[C@]3(C)C(N)=O)cc2cn(C3(F)CC3)nc12 [Example 397] | – | > 200 |
| COc1cc(C(=O)NC[C@@](O)(c2cccc(F)c2)c2cc3c(c(-c4ccc5c(c4Cl)OC(F)(F)O5)n2)OC[C@]3(C)C(N)=O)cc2oc(C)nc12 [Example 285] | – | < 200 |
| COc1cc(C(=O)NC[C@@](O)(c2cccc(C#N)c2)c2cc3c(c(-c4cc(Cl)c(F)cc4F)n2)OC[C@]3(C)C(N)=O)cc2cn(C3CC3)nc12 [Example 488] | – | < 200 |
| COc1cc(C(=O)NC[C@@](O)(c2cccc(F)n2)c2cc3c(c(-c4cc(Cl)c(F)cc4F)n2)OC[C@]3(C)C(N)=O)cc2cn(C(F)F)nc12 [Example 205] | – | < 200 |
| C[C@]1(C(N)=O)COc2c1cc([C@@](O)(CNC(=O)c1cc(OC3CC3)n3nc(C4CC4)cc3c1)C1CC1)nc2-c1cc(C(F)(F)F)c(F)cc1F [Example 328] | – | < 200 |
| Cc1cc(C(=O)NC[C@](O)(c2cc3c(c(-c4cc(F)c(F)cc4F)n2)OC[C@]3(C)C(N)=O)C2CC2)cc2cn[nH]c12 [Example 120] | – | > 200 |
| Cc1nc2ccc(C(=O)NC[C@@](O)(c3ccccc3)c3cc4c(c(-c5cc(F)c(F)cc5F)n3)OC[C@]4(C)C(N)=O)cc2o1 [Example 192] | – | < 200 |
| COc1cc(C(=O)NC[C@@](O)(c2ccccc2)c2cc3c(c(-n4ncc5c(F)cccc54)n2)OC[C@]3(C)C(N)=O)cc2cn(C(F)F)nc12 [Example 636] | < 200 | – |
| COc1cc(C(=O)NC[C@](O)(c2cc3c(c(-n4ccc5c(C(F)(F)F)cccc54)n2)OC[C@]3(C)C(N)=O)C2CC2)cc2cn(C3CC3)nc12 [Example 869] | > 200 | – |
| COc1cc(C(=O)NC[C@@](O)(c2ccccc2)c2cc3c(c(-c4ccc(S(C)(=O)=O)cc4F)n2)OC[C@]3(C)C(N)=O)cc2cn(C3(F)CC3)nc12 [Example 371] | – | > 200 |
| Cc1cc(C(=O)NC[C@@](O)(c2ccccc2)c2cc3c(c(-c4cc(Cl)c(F)cc4F)n2)OC[C@]3(C)C(N)=O)cc2cn[nH]c12 [Example 118] | – | < 200 |
| COc1cc(C(=O)NC[C@](O)(c2cc3c(c(-c4cc(Cl)c(F)cc4F)n2)OC[C@]3(C)C(N)=O)C2CC2)cc(O)c1NC(=O)C1(F)CC1 [Example 236] | – | > 200 |
| C[C@]1(C(N)=O)COc2c1cc([C@@](O)(CNC(=O)c1cc(Cl)c3nc(C4CC4)oc3c1)c1ccccc1)nc2-c1cc(Cl)c(F)cc1F [Example 232] | – | < 200 |
| C[C@]1(C(N)=O)COc2c1cc([C@@](O)(CNC(=O)c1ccc3nc(C4CC4)oc3c1)c1ccccc1)nc2-c1cc(C(F)F)c(F)cc1F [Example 311] | – | < 200 |
| COc1cc(C(=O)NC[C@@](O)(c2cncnc2)c2cc3c(c(-c4cc(Cl)c(F)cc4F)n2)OC[C@]3(C)C(N)=O)cc2cn(C3CC3)nc12 [Example 479] | – | < 200 |
| COc1cc(C(=O)NC[C@](O)(c2cc3c(c(-n4ncc5c(F)cccc54)n2)OC[C@]3(C)C(N)=O)C2CC2)cc2cc(Cl)c(C)nc12 [Example 899] | > 200 | – |
| COc1cc(C(=O)NC[C@@](O)(c2ccccc2)c2cc3c(c(-c4cc(F)c(F)cc4F)n2)OC[C@]3(C)C(N)=O)cc2cc(Cl)cnc12 [Example 198] | – | < 200 |
| COc1cc([C@](O)(CNC(=O)c2cc(OC)c3nn(C(F)F)cc3c2)c2cc3c(c(-c4cccc(Cl)c4Cl)n2)OC[C@]3(C)C(N)=O)cc(OC)n1 [Example 498] | – | < 200 |
| COc1cc(C(=O)NC[C@](O)(c2cc3c(c(-n4ncc5c4CCCC5)n2)OC[C@]3(C)C(N)=O)C2CC2)cc2oc(C3CC3)nc12 [Example 644] | > 200 | – |
| COc1cc(C(=O)NC[C@](O)(c2cc3c(c(-c4c(F)cncc4F)n2)OC[C@]3(C)C(N)=O)C2CC2)cc2cn(C3CC3)nc12 [Example 433] | – | < 200 |
| C[C@]1(C(N)=O)COc2c1cc([C@@](O)(CNC(=O)c1cc(OC3CC3)c3ncc(Cl)cc3c1)C1CC1)nc2-c1cc(F)c(F)cc1F [Example 104] | – | < 200 |
| COc1cc(C(=O)NC[C@](O)(c2cc3c(c(-n4ncc5c4CCCC5)n2)OC[C@]3(C)C(N)=O)C2CC2)cc2cn(C3(F)CC3)nc12 [Example 643] | > 200 | – |
